Measured values as given in ChEMBL document CHEMBL1201862, “PubChem BioAssay data set” (2004).
Calls of active or inactive are those of the source.

Columns and labels:
[1] = biological target: Intestinal-type alkaline phosphatase (Mus musculus, UniProt P24822); test: mouse intestinal alkaline phosphatase activators, dose response, biochemical, luminescence, uHTS hits (AID 488783); type: functional
[2] = biological target: Small ubiquitin-related modifier 2 (Homo sapiens, UniProt P61956); test: SUMO2 binding disruption by SUMO1 hits – biochemical, FRET, human SUMO2, uHTS hits, selectivity assay for SUMO1 interaction inhibitor project, dose response (AID 624384); type: functional; conditions: read-out: IC50_Mean
Chain of Small ubiquitin-related modifier 2 (P61956 whole entry): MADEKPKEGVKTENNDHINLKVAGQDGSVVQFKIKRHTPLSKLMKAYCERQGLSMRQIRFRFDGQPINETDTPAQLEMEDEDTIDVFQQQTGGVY

[3] = biological target: Intestinal-type alkaline phosphatase (Homo sapiens, UniProt P09923); test: activation of human intestinal alkaline phosphatase – biochemical, dose response (AID 488873); type: functional
Chain of Intestinal-type alkaline phosphatase (Homo sapiens, UniProt P09923) (P09923 whole entry): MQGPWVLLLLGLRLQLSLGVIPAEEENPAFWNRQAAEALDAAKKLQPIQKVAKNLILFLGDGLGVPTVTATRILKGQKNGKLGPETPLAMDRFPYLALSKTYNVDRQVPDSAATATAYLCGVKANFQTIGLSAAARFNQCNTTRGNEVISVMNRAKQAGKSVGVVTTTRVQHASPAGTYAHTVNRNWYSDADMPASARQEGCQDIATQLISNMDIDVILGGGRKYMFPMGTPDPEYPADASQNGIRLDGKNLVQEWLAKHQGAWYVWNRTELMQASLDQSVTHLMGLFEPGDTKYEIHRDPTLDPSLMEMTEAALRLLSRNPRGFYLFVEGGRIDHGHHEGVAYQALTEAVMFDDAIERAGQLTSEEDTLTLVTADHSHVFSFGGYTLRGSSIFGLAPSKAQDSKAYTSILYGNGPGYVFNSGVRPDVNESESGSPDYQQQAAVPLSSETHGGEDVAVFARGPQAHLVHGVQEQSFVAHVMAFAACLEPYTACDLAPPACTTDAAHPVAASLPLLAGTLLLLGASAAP

[4] = biological target: NAD-dependent protein deacylase sirtuin-5, mitochondrial (Homo sapiens, UniProt Q9NXA8); test: sirtuin-5 deacylation blockers, concentration series – biochemical, fluorescence imaging, cherry-pick, set 5, dose response (AID 720591);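 note: desuccinylation of succinyl peptide AMC substrate read as fluorescence after trypsin release; potency of inhibitors that lower fluorescence and may act on trypsin instead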
Chain of NAD-dependent protein deacylase sirtuin-5, mitochondrial (Q9NXA8 whole entry): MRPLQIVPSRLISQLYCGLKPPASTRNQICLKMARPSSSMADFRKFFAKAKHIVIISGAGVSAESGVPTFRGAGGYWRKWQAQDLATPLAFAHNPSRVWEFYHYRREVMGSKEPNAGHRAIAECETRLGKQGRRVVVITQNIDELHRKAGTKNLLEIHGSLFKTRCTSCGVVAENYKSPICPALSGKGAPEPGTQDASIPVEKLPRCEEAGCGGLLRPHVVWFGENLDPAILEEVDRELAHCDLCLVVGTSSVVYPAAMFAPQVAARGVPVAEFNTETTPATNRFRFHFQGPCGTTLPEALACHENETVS

[5] = Counterscreen for AddAB inhibitors: absorbance-based bacterial cell-based high throughput dose response assay for inhibitors of bacterial viability. [Related pubchem assays (depositor defined):AID435030, AID449728, AID449731, AID488942, AID488955, AID488956]; type: functional
[6] = system: Streptococcus sp. 'group A'; test: Streptococcus pyogenes SK(-)GAS viability under kanamycin – luminescence, BacTiterGlo, confirmation, counter-screen for streptokinase expression inhibitor project, dose response (AID 1900); type: functional, organism-based
[7] = biological target: T1, Sentrin-specific protease 8 (Homo sapiens, UniProt Q96LD8); type: functional
T1 sequence (Q96LD8 whole entry): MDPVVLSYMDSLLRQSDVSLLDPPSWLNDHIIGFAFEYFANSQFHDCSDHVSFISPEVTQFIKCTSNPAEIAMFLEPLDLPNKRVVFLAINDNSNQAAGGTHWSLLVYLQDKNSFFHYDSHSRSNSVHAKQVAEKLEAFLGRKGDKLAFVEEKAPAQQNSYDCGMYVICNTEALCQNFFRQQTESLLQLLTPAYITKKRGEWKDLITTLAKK

[8] = biological target: T2, Sentrin-specific protease 6 (Homo sapiens, UniProt Q9GZR1); type: functional;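 note: Luminescence-based dose-response confirmatory assay of SENP6 inhibition, following up an ultra-high-throughput screen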
T2 sequence (Q9GZR1 whole entry): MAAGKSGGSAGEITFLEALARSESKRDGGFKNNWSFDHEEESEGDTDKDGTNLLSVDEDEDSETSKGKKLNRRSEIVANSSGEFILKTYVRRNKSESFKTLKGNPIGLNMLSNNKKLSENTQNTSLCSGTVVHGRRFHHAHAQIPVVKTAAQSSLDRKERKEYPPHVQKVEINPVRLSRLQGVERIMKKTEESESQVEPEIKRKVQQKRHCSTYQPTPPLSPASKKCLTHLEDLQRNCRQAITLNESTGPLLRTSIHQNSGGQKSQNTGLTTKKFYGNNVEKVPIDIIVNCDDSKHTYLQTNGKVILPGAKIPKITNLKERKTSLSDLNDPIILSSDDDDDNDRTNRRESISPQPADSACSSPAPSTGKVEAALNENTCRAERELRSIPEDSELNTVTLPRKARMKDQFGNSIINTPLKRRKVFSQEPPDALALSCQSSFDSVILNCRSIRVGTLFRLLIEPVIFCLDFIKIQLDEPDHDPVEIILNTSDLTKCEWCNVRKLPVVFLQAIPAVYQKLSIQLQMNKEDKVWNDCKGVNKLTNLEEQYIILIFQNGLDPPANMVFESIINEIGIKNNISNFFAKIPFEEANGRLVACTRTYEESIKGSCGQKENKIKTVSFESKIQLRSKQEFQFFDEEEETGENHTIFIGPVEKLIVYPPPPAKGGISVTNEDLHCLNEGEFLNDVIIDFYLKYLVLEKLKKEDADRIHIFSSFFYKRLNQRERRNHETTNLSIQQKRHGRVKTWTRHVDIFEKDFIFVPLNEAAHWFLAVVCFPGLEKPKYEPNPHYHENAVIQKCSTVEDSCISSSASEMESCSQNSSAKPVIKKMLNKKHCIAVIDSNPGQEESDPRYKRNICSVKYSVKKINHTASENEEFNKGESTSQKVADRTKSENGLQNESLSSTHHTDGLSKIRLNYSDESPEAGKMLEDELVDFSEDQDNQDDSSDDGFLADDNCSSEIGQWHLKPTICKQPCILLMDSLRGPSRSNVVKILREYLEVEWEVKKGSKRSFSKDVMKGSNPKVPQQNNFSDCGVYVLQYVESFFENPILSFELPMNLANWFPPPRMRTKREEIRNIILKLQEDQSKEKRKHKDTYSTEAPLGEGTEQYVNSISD

[9] = biological target: T3, Caspase-3 (Homo sapiens, UniProt P42574); type: functional;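 note: Dose-response selectivity test against caspase-3 for candidate inhibitors of sentrin-specific proteases (SENPs)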
T3 sequence (P42574 whole entry): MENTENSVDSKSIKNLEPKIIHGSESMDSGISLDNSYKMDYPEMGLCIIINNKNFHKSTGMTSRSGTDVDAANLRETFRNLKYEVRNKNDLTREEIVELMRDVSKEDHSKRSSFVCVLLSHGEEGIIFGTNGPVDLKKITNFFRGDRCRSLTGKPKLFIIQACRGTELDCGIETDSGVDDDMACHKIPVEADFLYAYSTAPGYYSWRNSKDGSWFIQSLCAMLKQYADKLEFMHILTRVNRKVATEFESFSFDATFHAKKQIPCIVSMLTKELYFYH

[10] = biological target: T4, Tyrosine-protein phosphatase non-receptor type 22 (Homo sapiens, UniProt Q9Y2R2); type: functional;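 note: confirmatory dose-response retest of primary uHTS hits for inhibition of LYP phosphatase, measured by a fluorescence intensity read-out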
T4 sequence (Q9Y2R2 whole entry): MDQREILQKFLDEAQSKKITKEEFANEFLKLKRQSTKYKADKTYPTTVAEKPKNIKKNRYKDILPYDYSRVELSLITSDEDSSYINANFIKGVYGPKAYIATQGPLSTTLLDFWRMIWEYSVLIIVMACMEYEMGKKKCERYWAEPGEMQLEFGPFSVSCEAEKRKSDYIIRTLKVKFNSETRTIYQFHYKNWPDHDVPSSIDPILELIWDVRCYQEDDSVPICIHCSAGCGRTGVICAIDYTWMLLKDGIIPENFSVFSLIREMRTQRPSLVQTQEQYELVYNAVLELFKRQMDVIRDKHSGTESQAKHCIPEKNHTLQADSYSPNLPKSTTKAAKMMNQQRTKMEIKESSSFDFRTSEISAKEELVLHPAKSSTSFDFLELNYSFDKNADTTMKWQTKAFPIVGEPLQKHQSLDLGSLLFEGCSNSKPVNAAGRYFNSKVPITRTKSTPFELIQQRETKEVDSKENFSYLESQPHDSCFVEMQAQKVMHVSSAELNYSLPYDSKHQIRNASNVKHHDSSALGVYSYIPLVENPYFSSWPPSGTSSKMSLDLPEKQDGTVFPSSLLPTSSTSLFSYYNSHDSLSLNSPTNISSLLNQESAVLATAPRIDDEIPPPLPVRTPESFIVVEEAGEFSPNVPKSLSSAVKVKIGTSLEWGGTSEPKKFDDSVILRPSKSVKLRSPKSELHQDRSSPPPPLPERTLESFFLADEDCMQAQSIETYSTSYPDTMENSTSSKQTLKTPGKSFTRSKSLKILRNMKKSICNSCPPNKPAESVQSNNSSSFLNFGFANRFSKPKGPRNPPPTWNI

Chain of Intestinal-type alkaline phosphatase (Mus musculus, UniProt P24822) (P24822 whole entry): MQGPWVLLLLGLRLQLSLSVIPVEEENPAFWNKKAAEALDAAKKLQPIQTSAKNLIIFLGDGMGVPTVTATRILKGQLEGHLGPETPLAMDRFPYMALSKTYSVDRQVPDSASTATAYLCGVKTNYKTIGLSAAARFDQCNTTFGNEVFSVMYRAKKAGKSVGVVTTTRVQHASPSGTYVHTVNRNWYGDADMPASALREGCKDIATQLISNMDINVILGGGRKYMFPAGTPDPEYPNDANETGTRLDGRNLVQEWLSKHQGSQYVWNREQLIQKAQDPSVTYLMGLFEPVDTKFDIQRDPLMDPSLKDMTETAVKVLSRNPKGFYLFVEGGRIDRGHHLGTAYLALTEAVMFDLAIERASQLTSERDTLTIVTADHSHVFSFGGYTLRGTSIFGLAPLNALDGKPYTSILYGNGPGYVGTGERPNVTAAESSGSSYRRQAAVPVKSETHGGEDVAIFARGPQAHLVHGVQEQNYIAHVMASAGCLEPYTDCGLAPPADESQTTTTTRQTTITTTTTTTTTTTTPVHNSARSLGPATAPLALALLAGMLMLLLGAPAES

With `NS(=O)(=O)c1cc(C(=O)NC2CCSc3ccccc32)ccc1Cl` (stereo not given) the EC50 [1] was 5.57 µM (active), the IC50 [2] was 1.75 µM (active) and the EC50 [3] was 49.4 µM (active). The AC50 [4] was 6.65 µM (active).

With `O=C1c2ccccc2C(=O)c2[nH]c(O)nc21` the IC50 [5] was > 119 µM (inactive) and the EC50 [6] was 4.23 µM (active).

For `CCOC(=O)C1=C(C)OC2(O)c3ccccc3C(=O)C12O` (stereo not given), the IC50 [7] was 0.428 µM (active), the IC50 [8] was 2.7 µM (active) and the IC50 [9] was > 100 µM (inactive).

In the case of `N#Cc1c(N2CCCC2)nc(N)c2c(N)nc(N3CCCC3)cc12`, the IC50 [10] is reported as > 79.4 µM (inactive).
